Holding throughout (format): functional
Details in all cases: Rattus norvegicus, 13762, sc; route subcutaneous; read-out: TGI

Assay [1] deals with 13762. Briefly: Antitumor activity against rat 13762 cells allografted in Fischer/344 rat assessed as tumor growth inhibition at 10 mg/kg/day, sc for 10 days followed by double the dose every 2 days from day 11 to day 19 relative to vehicle-treated control.
The test system of assay [2] is 13762. Briefly: Antitumor activity against rat 13762 cells allografted in Fischer/344 rat assessed as tumor growth inhibition at 40 mg/kg/day, sc for 10 days followed by double the dose every 2 days from day 11 to day 19 relative to vehicle-treated control.
Assay [3] has as its system 13762. Briefly: Antitumor activity against rat 13762 cells allografted in Fischer/344 rat assessed as tumor growth inhibition at 2 mg/kg/day, sc for 10 days followed by double the dose every 2 days from day 11 to day 19 relative to vehicle-treated control.

Each structure is given as a SMILES string.

For `C[C@]12CC[C@@H]3c4ccc(O)cc4CC[C@H]3[C@@H]1CC[C@@]2(O)CNC(=O)N(CCCl)N=O`, the inhibition in vivo at 10 mg/kg/day in assay [1] came to 35%. Also, in assay [2], the inhibition in vivo at 40 mg/kg/day came out at 85%. The inhibition in vivo at 2 mg/kg/day in assay [3] was determined as 0%.

Consider `CN(N=O)C(=O)NC[C@]1(O)CC[C@H]2[C@@H]3CCc4cc(O)ccc4[C@H]3CC[C@@]21C`, for which, in assay [1], the inhibition in vivo at 10 mg/kg/day was determined as 10%. Further, the inhibition in vivo at 40 mg/kg/day in assay [2] is 23%. Further, the inhibition in vivo at 2 mg/kg/day in assay [3] is 0%.

Regarding `C[C@]12CC[C@@H]3c4ccc(O)cc4CC[C@H]3[C@@H]1CC[C@@H]2NC(=O)N(CCCl)N=O`, the inhibition in vivo at 10 mg/kg/day in assay [1] is 50%. The inhibition in vivo at 40 mg/kg/day in assay [2] is 100%. In addition, the inhibition in vivo at 2 mg/kg/day in assay [3] amounted to 0%.

For the compound `CN(N=O)C(=O)N[C@H]1CC[C@H]2[C@@H]3CCc4cc(O)ccc4[C@H]3CC[C@]12C`, the inhibition in vivo at 10 mg/kg/day in assay [1] worked out at 15%. In addition, the inhibition in vivo at 40 mg/kg/day in assay [2] is 15%. Moreover, the inhibition in vivo at 2 mg/kg/day in assay [3] came out at 4%.

As for `O=NN(CCCl)C(=O)NC1CCCCC1` [LOMUSTINE], the inhibition in vivo at 10 mg/kg/day in assay [1] came to 80%.

Source of the values: ChEMBL document CHEMBL3227976, “Synthesis of steroidal nitrosoureas with antitumor activity” (1979).
